This is an account of results in PMC9181899, “Synthesis and Anticancer Properties of New 3-Methylidene-1-sulfonyl-2,3-dihydroquinolin-4(1H)-ones” (Molecules, 2022).

The assay concerns HL-60 cells. Put plainly: Apoptosis by cleaved PARP (Asp214) staining, flow cytometry. The format is cell-based. To be noted: 24 h, control 1.4%. As for the experimental part:
To evaluate the anticancer potential of 5a, the ability of this compound to inhibit cell proliferation, induce apoptotic cell death, and generate DNA damage was examined by flow cytometry using the ‘Apoptosis, DNA Damage, and Cell Proliferation Kit’ (BD Bioscience). After 24 h treatment with 5a in increasing concentrations, HL-60 cells were exposed to bromodeoxyuridine (BrdU) for additional 8 h. Then, the cells were simultaneously stained with fluorochrome-labeled anti-BrdU, anti-cleaved PARP (Asp214) and anti-H2AX (pS139).
To check whether the cytotoxic effect of 5a was associated with the induction of apoptosis, the pro-apoptotic activity of this compound was investigated. Apoptosis regulation is triggered by the activation of caspases. Caspase-3, an effector caspase, cleaves a number of vital proteins, leading to cell death. The activity of caspase-3 was assessed by flow cytometry using fluorochrome-labeled antibodies recognizing 89 kDa-cleaved PARP fragments released from PARP by caspase-3 in the executive stage of apoptosis.
Cell proliferation, DNA damage, and apoptotic cell death were determined using Apoptosis, DNA Damage, and Cell Proliferation Kit (BD Bioscience, San Jose, CA, USA), according to the manufacturer protocol. Briefly, HL-60 cells were seeded in 6-well plates (4.0 × 10^5 cells/mL) in 2 mL of growth medium and treated with 5a for 24 h. Afterwards, the bromodeoxyuridine (BrdU, 10 µM) was added and the cells were incubated for additional 8 h. Next, the cells were collected by centrifugation (300× g, 5 min), counted, fixed, and permeabilized according to the manufacturer’s instructions. The cells were incubated with DNase (300 µg/mL in PBS) for 1 h at 37 °C and then simultaneously stained with fluorochrome-labeled anti-BrdU, H2AX (pS139), and cleaved PARP (Asp214) antibodies, for 20 min at room temperature. After washing, DNA staining with DAPI (1 µg/mL of the staining buffer) was performed, and the cells were analyzed by flow cytometry using CytoFLEX (Beckman Coulter, Inc., Brea, CA, USA).

As to `CCOP(=O)(OCC)C1=C(O)c2ccccc2N(S(=O)(=O)c2ccccc2)C1CC` (centres unmarked) [Compound 10a], the “apoptotic cells (cleaved PARP positive) population” value is, setting by setting: (1.35 µM) 20.6%; (1.8 µM) 26.4%.
